# Read-outs that look alike come from different tables or passages of the source.
# Tests used:
# [1] = tested on: human prostate cancer cells (PC3); assay: MTT dye reduction viability test, PC3; type: cell-based; conditions: for viability at 10 µM / viability at 20 µM / viability at 40 µM / viability at 60 µM / viability at 80 µM / viability at 100 µM / IC50: Homo sapiens; for viability at 10 µM: PC3, 10 µM; for viability at 20 µM: PC3, 20 µM; for viability at 40 µM: PC3, 40 µM; for viability at 60 µM: PC3, 60 µM; for viability at 80 µM: PC3, 80 µM; for IC50: read-out: Cytotoxic activity IC50, PC3
# Description: (§1) We have chosen two types of cell culture lines: human prostate cancer cells (PC3) and normal human immortal keratinocyte cells (HaCaT) (Table 1).
# (§2) Human prostate cancer cells (PC3) and human immortal keratinocyte cell line from adult human skin (HaCaT) were obtained from American Type Culture Collection (Teddington, UK) and cultured according to its instructions RPMI 1640 (L0490) medium or DMEM (L0102) medium, respectively, in a 95% air and 5% CO2 humidified incubator at 37 °C. Both media (Biowest) were supplemented with 10% fetal bovine serum (FBS), 100 U/mL penicillin and 100 μg/mL streptomycin. 10 mM stock solutions of tested compounds in DMSO were prepared.
# (§3) To assess the cells growth inhibition, the MTT dye reduction test was preformed based on the method described by Präbst et al.. Both PC3 and HaCaT cells (1 × 10^3/well) were seeded into 96-well plates and incubated for 24 h to attach to the bottom of the well in appropriate medium (200 μL) and treated with tested compounds (0–100 μM). The medium with compounds was removed after 72 h and MTT (0.5 mg/mL) in fresh growth medium without serum was added to each well. The plates were incubated in dark for 4 h at 37 °C. Then, the solution in each well was removed and refilled with 100 μL DMSO: isopropanol (1:1) to dissolve formazon crystals. The optical density was measured with an UVM 340 (ASYS Hitech GmbH, Austria) microplate reader at 570 nm. Replicates of three wells for each dosage, including vehicle control, were analyzed for each experiment. The experiments were conducted in triplicate. The results are expressed as IC50 values. The value of IC50 was estimated using CompuSyn version 1.0.
# [2] = MTT dye reduction viability test, HaCaT; type: cell-based, human; conditions: human; for viability at 72 h, 10 µM / viability at 72 h, 20 µM / viability at 72 h, 40 µM / viability at 72 h, 60 µM / viability at 72 h, 80 µM / viability at 72 h, 100 µM: HaCaT
# Description: as §1, §2, §3
# rat brain homogenate = assay: Lipid peroxidation (MDA/TBA) induced by FeCl2 and ascorbic acid; type: biochemical; conditions: for MDA concentration: oxidation by 0.1% FeCl2 and 1 mM ascorbic acid, 1 h 37 °C, control 9.644 ± 1.570
# Description: The antioxidant potential of the new flavone derivatives was assessed based on the analysis of malondialdehyde concentration formed as a product of lipid oxidation stimulated by iron (II) ions.
# After preparation, the brain was placed on an ice plate and washed with cold 0.9% NaCl. 10% (m/v) brain solution was obtained by homogenization in cold 10 mM TRIS-HCl buffer, pH = 7.5. The homogenate was centrifuged (2000 rpm, 10 min, 4 °C) to obtain supernatant 1 (S1).
# 100 µM stock solutions of test compounds in DMSO were prepared. The test compound solution was added to a […] S1 homogenate to a final concentration of 10 µM.
# The oxidation reaction was induced by adding to the samples with or without the test compounds freshly prepared solutions: 0.1% FeCl2 (0.2 mL) and 1 mM ascorbic acid (0.4 mL). After incubation for 1 h at 37 °C, the reaction was stopped by adding 8.1% sodium dodecyl sulfate (SDS) solution. In order to determine the concentration of MDA, the acetic acid/HCl buffer at pH = 3.4 and 120 μL of 0.8% thiobarbituric acid (TBA) solution at pH = 6 were added to the samples. The samples were incubated for 1 h at 100 °C. After incubation, the samples were cooled on ice and centrifuged for 10 min at 4000 RPM. The absorbance was measured at a wavelength of 532 nm. Blank content: 0.5 mL of acetate buffer + 0.5 mL of TBA solution.
# Calculation of malondialdehyde (MDA) concentration (Equation (1)):(1) MDA concentration=∆ A532 nm × 1.56 ×10^−6 [nmol MDA/h/g tissue]
# [3] = 72 h, representative MTT result (Table S1 A)
# [4] = PC3, 100 µM, 72 h, representative MTT result (Table S1 A), read-out: Cells viability
# [5] = HaCaT cells (immortal keratinocytes), 72 h, representative MTT result (Table S1 B)
# [6] = HaCaT cells (immortal keratinocytes), 100 µM, 72 h, representative MTT result (Table S1 B), read-out: Cells viability
# [7] = HaCaT cells (immortal keratinocytes), 72 h exposure, MTT, mean ± SD, read-out: Cytotoxic activity IC50, HaCaT
melting point,SMILES,"viability at 10 µM [1, 3]","viability at 20 µM [1, 3]","viability at 40 µM [1, 3]","viability at 60 µM [1, 3]","viability at 80 µM [1, 3]","viability at 100 µM [1, 4]","viability at 72 h, 10 µM [2, 5]","viability at 72 h, 20 µM [2, 5]","viability at 72 h, 40 µM [2, 5]","viability at 72 h, 60 µM [2, 5]","viability at 72 h, 80 µM [2, 5]","viability at 72 h, 100 µM [2, 6]","IC50 ([1]; 72 h exposure, MTT, mean ± SD)",MDA concentration (rat brain homogenate; 10 µM compound),"IC50 at 72 h [2, 7]",further results
,"O=c1cc(-c2ccccc2)oc2ccc(O)cc12 [Compound 13, 6-Hydroxy-Flavone, reference compound]",89.4%,87.8%,99%,110%,87%,73.2%,96.4%,83.8%,77.9%,95.1%,84.9%,87.8%,,,,
,"CCCCCC=CCC=CCCCCCCCC(=O)Oc1ccc2c(=O)cc(-c3ccccc3)oc2c1 [7-Linoleic-Flavone, 7-hydroxy-flavone linoleic ester]",84.6%,70.4%,46.7%,35.9%,34.3%,39.5%,88.4%,73.2%,74.5%,57%,44.6%,34%,41.2 ± 2.3 µM,8.010 ± 0.008 mM × 10^−3,65 ± 4.12 µM,
129.4 to 130.8 °C,"CC=CC=CC(=O)Oc1ccc2c(c1)C(=O)CC(c1ccccc1)O2 (stereo not drawn) [6-Sorbic-Flavanone, 6-hydroxy-flavanone sorbic ester]",95.6%,88.7%,82.1%,41.3%,28.7%,32.6%,98.7%,96.7%,89.6%,75.7%,56.7%,31.4%,54.7 ± 5.25 µM,6.938 ± 0.392 mM × 10^−3,79.8 ± 2.21 µM,antioxidant potential compared to the original compound (in words) (rat brain homogenate; MDA in rat brain homogenate): slight increase in antioxidant potential
84.5 to 85.7 °C,"CCCCCCCCCCCCCCCCCC(=O)Oc1ccc2c(=O)cc(-c3ccccc3)oc2c1 [7-Stearic-Flavone, 7-hydroxy-flavone stearic ester]",100%,87.7%,41.8%,32.2%,47.9%,27.5%,95.8%,65.3%,59.1%,39.8%,35.7%,20.7%,33.2 ± 4.81 µM,8.151 ± 0.343 mM × 10^−3,45.6 ± 7.2 µM,
,"O=C1CC(c2ccccc2)Oc2ccc(O)cc21 (stereo not drawn) [6-Hydroxy-Flavanone, 6-hydroxy-flavanone, reference compound]",96.4%,96%,96%,96.7%,96.4%,96.8%,99.7%,115%,113%,104%,72.2%,74.4%,> 100 µM,7.077 ± 1.815 mM × 10^−3,> 100 µM,"viability at 100 µM ([1]; PC3, 100 μM, 72 h incubation, read-out: cells viability compared to control cells): 89%; reduction of the level of MDA compared to the control sample (rat brain homogenate; 10 µM compound, rat brain homogenate): 26.62%; viability at 72 h, 100 µM ([2]; HaCaT cells (immortal keratinocytes), 100 μM, 72 h incubation, read-out: cells viability compared to control cells): 73%"
,"CCCCCC=CCC=CCCCCCCCC(=O)Oc1ccc2c(c1)C(=O)CC(c1ccccc1)O2 (stereo not drawn) [6-Linoleic-Flavanone, 6-hydroxy-flavanone linoleic ester]",94.7%,76.5%,53.3%,45.4%,31.2%,20.2%,95.7%,93.8%,86.8%,73.4%,50.3%,34.9%,48.3 ± 8.73 µM,,80 ± 4.75 µM,
73.3 to 74.5 °C,"CCCCCCCCC=CCCCCCCCC(=O)Oc1ccc2c(=O)cc(-c3ccccc3)oc2c1 [7-Oleic-Flavone, 7-hydroxy-flavone oleic ester]",92.2%,80.8%,48.2%,41%,42.2%,38.9%,95.3%,79.3%,51.9%,39.9%,38.7%,44.9%,39.3 ± 2.11 µM,8.465 ± 0.834 mM × 10^−3,44.9 ± 6.44 µM,
,"COc1cccc2c1C(=O)c1c(O)c3c(c(O)c1C2=O)C[C@@](O)(C(=O)CO)C[C@@H]3O[C@H]1C[C@H](N)[C@H](O)[C@H](C)O1 [doxorubicin, reference compound]",,,,,,,,,,,,,,,,"IC50 ([1]; 72 h): 0.29 µM; IC50 at 72 h ([2]; Cytotoxic activity IC50, HaCaT): 0.31 µM"
137.8 to 139.7 °C,"CC=CC=CC(=O)Oc1ccc2c(=O)cc(-c3ccccc3)oc2c1 [7-Sorbic-Flavone, 7-hydroxy-flavone sorbic ester]",84%,80.9%,93.6%,74.5%,69.6%,75.2%,97.5%,87.2%,80.1%,41%,57.4%,43.7%,94.3 ± 4.24 µM,8.361 ± 0.050 mM × 10^−3,50.8 ± 2.48 µM,
,"CCC=CCC=CCC=CCCCCCCCC(=O)Oc1ccc2c(=O)cc(-c3ccccc3)oc2c1 [7-Linolenic-Flavone, 7-hydroxy-flavone linolenic ester]",90.2%,86.3%,81.7%,79.4%,86.8%,86.7%,106%,90.5%,66%,19.4%,15.8%,14.6%,> 100 µM,,45.4 ± 9.2 µM,"cytotoxic potential in PC3 cells (in words) ([1]; PC3, 0–100 μM, 72 h): no cytotoxic potential"

# — article PMC8777613, “Effect of Hydroxyl Groups Esterification with Fatty Acids on the Cytotoxicity and Antioxidant Activity of Flavones” (Molecules, 2022)
